Assay results as given in US20160120915A1, “METHODS FOR MANIPULATING IMMUNE RESPONSES BY ALTERING MICROBIOTA” (NEW YORK UNIVERSITY, priority 2013, published 2016).
Structures can show the parent of a compound that is named as a salt. One block for each compound: values may come before it.

Columns and labels:
ileal tissue structure = experiment: Ileal atrophy scoring in H&E stained ileum; assay type: in vivo, C57BL/6J mice; conditions: 4-week old mice, n=5 each, p<0.05 Mann-Whitney U, vs control
Description: Atrophy was scored in hematoxylin and eosin (H&E) stained ileum samples from 4-week old control and STAT mice (n=5 each).
Ileal tissues from 4-week-old control and STAT mice were formalin fixed and paraffin embedded, cut, and stained with hemotoxylin and eosin (H&E). 4 slides were scored for ileal atrophy per mouse and the average score per mouse was averaged.

[1] = system: intestinal microbial community; experiment: NOD: 16S rRNA V4 sequencing of fecal, cecal and ileal microbiota; assay type: in vivo, NOD mice; conditions: for fecal microbial community structure (PCoA, unweighted unifrac): all time points
Experimental: Fecal pellets were collected at least weekly from weaning at 3 weeks of age until the study termination at 31 weeks of age, and stored at −20° C. until processing. DNA was extracted from fecal pellets using the PowerLyzer™ PowerSoil® DNA Isolation Kit (MoBio, Carlsbad Calif.) and stored at −20° C. Cecal and ileal samples were collected upon necropsy at 6 weeks of age, upon diabetes development, or at the termination of the experiment at […] of age, and extracted using the PowerLyzer™ PowerSoil® DNA Isolation Kit.
Fecal samples collected at 3, 6, 10, and 13 weeks of age, and cecal and ileal samples collected at 6 weeks of age were used for sequencing. The V4 region of the 16S rRNA gene was amplified using universal primers 515 forward primer (5′ GTGCCAGCMGCCGCGGTAA 3′ SEQ ID NO: 54) and 806 reverse primer (5′ […] 3′ SEQ ID NO: 55) [Escherichia coli strain 83972 sequence (greengenes accession no. prokM-SA_id:470367] linked to a 12 base Goley barcode for multiplexing (Caporaso et al., The ISME Journal 2012; 6:1621-4. Caporaso et al., Proc. Natl. Acad. Sci. USA, 2011; 108 Suppl 1:4516-22). Sequencing was performed on the Miseq platform with a 15% PhiX spike.
The sequences were analyzed using the macqiime 1.7.0 software (Caporaso et al., Nature Methods 2010; 7:335-6). Sequences were aligned using the Ribosomal Database Project (RDP) classifier (Wang et al., Applied and Environmental Microbiology 2007; 73:5261-7). Taxonomy was assigned based on the GreenGenes May 2013. For alpha diversity measurements, observed number of species and phylogenic distance (PD) were calculated. For beta diversity measurements, unweighted unifrac distances were calculated (Lozupone C, Knight R., Applied and Environmental Microbiology 2005; 71:8228-35). The unweighted unifrac distances were used for principal coordinates analysis (PCoA), and visualized using the KiNG software. Further sequencing analysis and correlations were performed using the phyloseq and ellipse packages in R.

ileal tissue = experiment: TimeSTAT: expression of immunological markers in ileal tissue by qPCR; assay type: in vivo, C57BL/6J mice; conditions: 20 weeks of age
Description: C57BL/6J (Jackson Labs, Bar Harbor, Me.) mice either received no antibiotics (control, females n=5, males n=5) or continuous STAT penicillin starting at birth (STATb, females n=4, males n=5), or at weaning at 4 weeks (STATw, females n=5, males n=5). Mice were weaned at 4 weeks onto normal chow (13.2% fat, 5053 PicoLab Rodent Diet 20, LabDiet, Brentwood, Mo.).
Both STATw and STATb remained on lifelong STAT after initial exposure. Mice were sacrificed at 20 weeks of age. The terminal[1 cm] ileum without Peyer's Patches [TI-] was collected for gene expression analysis by qPCR.
Total RNA was extracted from mouse tissues using the RNeasy Mini Kit (Qiagen), according to the manufacturer's instructions. Total RNA was reverse transcribed to cDNA using the Verso™ cDNA Synthesis Kit (Thermo Scientific). To generate standards for expression analysis of each target gene, the cDNA region of interest was PCR-amplified and the PCR product was cloned into pGEM-T easy (Promega). qPCR was performed with LightCycler 480 SYBR Green I Master mix (Roche) and run in a LightCycler 480 system (Roche). Target mRNA was normalized to GAPDH mRNA as an internal control in each sample.
Both STATw and STATb remained on lifelong STAT after initial exposure. Expression of immunological markers in ileal tissue was measured by qPCP at 20 weeks of age in both female and male mice.

- ileal expression of polymeric Ig receptor (pIgR) (ileal tissue; female mice, STAT vs control): significant reductions
Compound: CC1(C)S[C@@H]2[C@H](NC(=O)COc3ccccc3)C(=O)N2[C@H]1C(=O)[O-].[K+] [STAT, penicillin VK]
- ileal atrophy (ileal tissue structure): significantly more
- Akkermansia muciniphila (species level) ([1]; STAT male cecal and ileal samples, vs controls (less than PAT)): more
- prevalence of Bifidobacterium sp. ([1]; STAT-antibiotic-treated NOD mice vs controls): not different
- fecal microbial community structure (PCoA, unweighted unifrac) ([1]; males and females): essentially overlap
- bloom in Verrucomicrobia ([1]; cecal and ileal samples from male STAT mice): greater than in controls but less than in PAT
- abundance of all 3 named Bifidobacterium species ([1]; females): increased abundance
- OTU richness ([1]; females, only at 3 weeks of age, vs controls): significantly lower
- OTU richness ([1]; males, at 3 and 6 weeks of age, vs controls): significantly lower
- ileal expression of Th17 transcription factor (RORγT) (ileal tissue; female mice, STAT from weaning or birth vs control): significant reductions
- ileal expression of J-chain (ileal tissue; female mice, STAT vs control): significant reductions
- ileal expression of Reg3γ (ileal tissue; female mice, STAT vs control): significant reductions
- ileal expression of SAA1/SAA2 (ileal tissue; female mice, STAT vs control): significant reductions
- ileal expression of SSA3 (ileal tissue; female mice, STAT vs control): significant reductions
- ileal expression of cytokine (ileal tissue; female mice, STAT vs control): significant reductions
- ileal expression of cytokine TH-17A (ileal tissue; female mice, STAT vs control): significant reductions
- ileal expression of defensin β1 (Defb1) (ileal tissue; female mice, STAT vs control): significant reductions
- ileal expression of J-chain (ileal tissue; male mice, STAT vs control): lacked differences
- ileal expression of RORγt (ileal tissue; male mice, STAT vs control): lacked differences
- ileal expression of pIgR (ileal tissue; male mice, STAT vs control): lacked differences

Compound: CC[C@H]1OC(=O)C[C@@H](O)[C@H](C)[C@@H](O[C@@H]2O[C@H](C)[C@@H](O[C@H]3C[C@@](C)(O)[C@@H](O)[C@H](C)O3)[C@H](N(C)C)[C@H]2O)[C@@H](CC=O)C[C@@H](C)C(=O)/C=C/C(C)=C/[C@@H]1CO[C@@H]1O[C@H](C)[C@@H](O)[C@@H](OC)[C@H]1OC [Tylosin, Tylosin tartrate]
- cecal and ileal microbial composition ([1]; 6-week old NOD mice, Adonis test): significantly alters
- Bacteroides ([1]; PAT samples after the first antibiotic pulse): decrease
- Verrucomicrobia (phylum level) ([1]; PAT samples after the first antibiotic pulse, vs control): large bloom
- Akkermansia muciniphila (species level) ([1]; PAT samples starting at 3 weeks): large bloom
- Phylogenic diversity (PD) ([1]; all sample times, all sample types, males and females, vs controls): lower
- OTU richness ([1]; all sample times, all sample types, males and females, vs controls, FDR p<0.05): lower
- fecal microbial community structure (PCoA, unweighted unifrac) ([1]; males and females): cluster distinctly from controls
- relative abundance of Bifidobacterium genus ([1]; females and males): decreases
- relative abundance of three detectable Bifidobacterium species (B. animalis, B. adolescentis, B. pseudolongum) ([1]; females and males): decreases
- relative abundance of unnamed Bifidobacterium species ([1]; females and males): decreases
- intragroup beta diversity (unweighted Unifrac distance) ([1]; male NOD mice, vs controls): lower
